Source: the kinase profiling compilation of Christmann-Franck et al. (2016)

Experiments:
Test in all cases: radiometric filter-binding kinase assay, Kinase HotSpot
Details in all cases: compound 0.5 µM; ATP 10 µM
MARK2 (human) = MARK2 (human) (UniProt Q7KZI7)
LCK (human) = LCK (human) (UniProt P06239)
GRK4 (human) = GRK4 (human) (UniProt P32298)
CAMK2D (human) = CAMK2D (human) (UniProt Q13557)
MKNK2 (human) = MKNK2 (human) (UniProt Q9HBH9)
LIMK1 (human) = LIMK1 (human) (UniProt P53667)
VRK1 (human) = VRK1 (human) (UniProt Q99986)
MAPKAPK5 (human) = MAPKAPK5 (human) (UniProt Q8IW41)
FER (human) = FER (human) (UniProt P16591)
Sequence of FER (human) (P16591 whole entry, looked up): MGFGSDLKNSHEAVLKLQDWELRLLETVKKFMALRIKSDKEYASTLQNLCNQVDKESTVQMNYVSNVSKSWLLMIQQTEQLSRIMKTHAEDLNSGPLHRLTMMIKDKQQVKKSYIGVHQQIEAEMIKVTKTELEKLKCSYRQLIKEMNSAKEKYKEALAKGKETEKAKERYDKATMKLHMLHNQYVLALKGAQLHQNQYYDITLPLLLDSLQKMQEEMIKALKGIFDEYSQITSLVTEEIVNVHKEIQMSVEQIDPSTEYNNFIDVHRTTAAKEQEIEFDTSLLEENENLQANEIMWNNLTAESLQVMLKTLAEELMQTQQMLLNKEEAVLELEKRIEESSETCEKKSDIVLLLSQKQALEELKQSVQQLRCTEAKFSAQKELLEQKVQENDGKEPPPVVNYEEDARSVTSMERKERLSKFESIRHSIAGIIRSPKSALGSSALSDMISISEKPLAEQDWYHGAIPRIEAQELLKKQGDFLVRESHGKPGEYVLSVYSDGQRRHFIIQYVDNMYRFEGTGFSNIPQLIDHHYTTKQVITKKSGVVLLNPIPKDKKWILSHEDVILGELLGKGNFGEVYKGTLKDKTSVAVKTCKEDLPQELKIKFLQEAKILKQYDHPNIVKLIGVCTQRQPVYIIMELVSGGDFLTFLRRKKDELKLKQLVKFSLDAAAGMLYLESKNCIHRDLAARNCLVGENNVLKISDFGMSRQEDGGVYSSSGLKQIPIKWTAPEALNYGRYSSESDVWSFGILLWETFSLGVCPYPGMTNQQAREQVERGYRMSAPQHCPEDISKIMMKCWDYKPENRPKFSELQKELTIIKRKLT

PAK1 (human) = PAK1 (human) (UniProt Q13153)
MAPKAPK2 (human) = MAPKAPK2 (human) (UniProt P49137)
TTK (human) = TTK (human) (UniProt P33981)
NLK (human) = NLK (human) (UniProt Q9UBE8)
MAP4K2 (human) = MAP4K2 (human) (UniProt Q12851)
EPHA2 (human) = EPHA2 (human) (UniProt P29317)
CDK2 CCNE1 (human) = CDK2 CCNE1 (human) (UniProt P24941+P24864)
SRMS (human) = SRMS (human) (UniProt Q9H3Y6)
PRKCB1 (human) = PRKCB1 (human) (UniProt P05771)
CLK4 (human) = CLK4 (human) (UniProt Q9HAZ1)
MAP4K4 (human) = MAP4K4 (human) (UniProt O95819)
PRKCB2 (human) = PRKCB2 (human) (UniProt P05771)
TSSK2 (human) = TSSK2 (human) (UniProt Q96PF2)
EPHA3 (human) = EPHA3 (human) (UniProt P29320)
MARK4 (human) = MARK4 (human) (UniProt Q96L34)
MUSK (human) = MUSK (human) (UniProt O15146)
TAOK3 (human) = TAOK3 (human) (UniProt Q9H2K8)
Sequence of TAOK3 (human) (Q9H2K8 whole entry, looked up): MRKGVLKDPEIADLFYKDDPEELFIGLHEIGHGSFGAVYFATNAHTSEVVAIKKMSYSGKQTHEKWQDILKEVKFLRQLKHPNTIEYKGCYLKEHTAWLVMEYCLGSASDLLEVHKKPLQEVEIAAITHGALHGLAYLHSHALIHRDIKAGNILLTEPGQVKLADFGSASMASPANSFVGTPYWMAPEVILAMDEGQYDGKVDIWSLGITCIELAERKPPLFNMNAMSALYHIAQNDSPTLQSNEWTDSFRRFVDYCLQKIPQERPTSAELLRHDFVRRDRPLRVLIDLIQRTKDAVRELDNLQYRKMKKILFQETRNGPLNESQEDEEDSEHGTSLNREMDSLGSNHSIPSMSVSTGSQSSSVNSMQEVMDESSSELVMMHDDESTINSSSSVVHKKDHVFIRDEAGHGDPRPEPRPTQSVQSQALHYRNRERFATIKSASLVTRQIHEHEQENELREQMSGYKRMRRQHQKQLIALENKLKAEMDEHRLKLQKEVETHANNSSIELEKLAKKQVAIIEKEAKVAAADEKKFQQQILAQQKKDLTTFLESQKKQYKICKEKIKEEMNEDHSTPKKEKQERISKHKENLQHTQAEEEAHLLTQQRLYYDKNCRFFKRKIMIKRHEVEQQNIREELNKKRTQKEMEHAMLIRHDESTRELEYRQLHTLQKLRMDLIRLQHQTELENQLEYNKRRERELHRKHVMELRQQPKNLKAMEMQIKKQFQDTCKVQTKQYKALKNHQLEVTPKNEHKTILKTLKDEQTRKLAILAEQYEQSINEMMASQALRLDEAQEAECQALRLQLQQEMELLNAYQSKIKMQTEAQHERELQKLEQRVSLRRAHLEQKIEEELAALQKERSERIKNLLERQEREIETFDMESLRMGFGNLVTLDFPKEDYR

RPS6KA3 KD1 KD2 (human) = RPS6KA3 KD1 KD2 (human) (UniProt P51812)
EGFR (human) = EGFR (human) (UniProt P00533)
STK39 (human) = STK39 (human) (UniProt Q9UEW8)
DAPK2 (human) = DAPK2 (human) (UniProt Q9UIK4)
DCLK2 (human) = DCLK2 (human) (UniProt Q8N568)
EPHB1 (human) = EPHB1 (human) (UniProt P54762)
PAK6 (human) = PAK6 (human) (UniProt Q9NQU5)
PDPK1 (human) = PDPK1 (human) (UniProt O15530)
GSK3B (human) = GSK3B (human) (UniProt P49841)
HIPK1 (human) = HIPK1 (human) (UniProt Q86Z02)
Sequence of HIPK1 (human) (Q86Z02 whole entry, looked up): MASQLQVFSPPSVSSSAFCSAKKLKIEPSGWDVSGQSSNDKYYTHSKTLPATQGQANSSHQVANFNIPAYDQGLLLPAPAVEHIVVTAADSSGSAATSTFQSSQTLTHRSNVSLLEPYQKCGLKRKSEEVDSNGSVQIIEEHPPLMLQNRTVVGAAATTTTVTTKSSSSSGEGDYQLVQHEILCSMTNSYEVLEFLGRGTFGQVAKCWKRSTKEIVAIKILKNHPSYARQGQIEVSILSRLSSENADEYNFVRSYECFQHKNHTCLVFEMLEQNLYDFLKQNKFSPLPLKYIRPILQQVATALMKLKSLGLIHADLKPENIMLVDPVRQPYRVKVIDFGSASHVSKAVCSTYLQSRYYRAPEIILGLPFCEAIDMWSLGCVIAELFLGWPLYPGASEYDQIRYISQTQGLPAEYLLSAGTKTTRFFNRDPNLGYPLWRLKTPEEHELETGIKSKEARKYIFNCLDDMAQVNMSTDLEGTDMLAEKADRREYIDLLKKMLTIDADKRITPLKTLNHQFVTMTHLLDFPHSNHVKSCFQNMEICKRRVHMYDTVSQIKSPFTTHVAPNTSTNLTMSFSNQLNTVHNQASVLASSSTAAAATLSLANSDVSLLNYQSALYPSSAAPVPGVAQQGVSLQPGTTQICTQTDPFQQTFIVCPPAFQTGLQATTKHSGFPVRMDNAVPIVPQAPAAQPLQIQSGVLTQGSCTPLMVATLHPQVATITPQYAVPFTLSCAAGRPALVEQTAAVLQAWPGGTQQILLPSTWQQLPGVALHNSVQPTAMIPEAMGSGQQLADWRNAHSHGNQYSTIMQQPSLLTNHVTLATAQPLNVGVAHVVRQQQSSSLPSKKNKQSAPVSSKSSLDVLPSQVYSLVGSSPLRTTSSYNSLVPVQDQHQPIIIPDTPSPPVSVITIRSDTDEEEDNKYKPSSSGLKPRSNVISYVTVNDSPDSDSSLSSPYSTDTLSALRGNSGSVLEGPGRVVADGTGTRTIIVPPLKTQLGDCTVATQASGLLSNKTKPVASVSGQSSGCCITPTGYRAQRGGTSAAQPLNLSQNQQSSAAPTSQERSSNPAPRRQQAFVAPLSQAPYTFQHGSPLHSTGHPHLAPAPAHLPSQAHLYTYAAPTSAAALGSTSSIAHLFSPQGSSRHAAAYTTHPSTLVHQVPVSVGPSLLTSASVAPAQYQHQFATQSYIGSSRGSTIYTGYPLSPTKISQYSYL

MAPKAPK3 (human) = MAPKAPK3 (human) (UniProt Q16644)
CDK5 CDK5R1 p35 (human) = CDK5 CDK5R1 p35 (human) (UniProt Q00535+Q15078)
GRK6 (human) = GRK6 (human) (UniProt P43250)
HIPK4 (human) = HIPK4 (human) (UniProt Q8NE63)
CLK2 (human) = CLK2 (human) (UniProt P49760)
AXL (human) = AXL (human) (UniProt P30530)
Sequence of AXL (human) (P30530 whole entry, looked up): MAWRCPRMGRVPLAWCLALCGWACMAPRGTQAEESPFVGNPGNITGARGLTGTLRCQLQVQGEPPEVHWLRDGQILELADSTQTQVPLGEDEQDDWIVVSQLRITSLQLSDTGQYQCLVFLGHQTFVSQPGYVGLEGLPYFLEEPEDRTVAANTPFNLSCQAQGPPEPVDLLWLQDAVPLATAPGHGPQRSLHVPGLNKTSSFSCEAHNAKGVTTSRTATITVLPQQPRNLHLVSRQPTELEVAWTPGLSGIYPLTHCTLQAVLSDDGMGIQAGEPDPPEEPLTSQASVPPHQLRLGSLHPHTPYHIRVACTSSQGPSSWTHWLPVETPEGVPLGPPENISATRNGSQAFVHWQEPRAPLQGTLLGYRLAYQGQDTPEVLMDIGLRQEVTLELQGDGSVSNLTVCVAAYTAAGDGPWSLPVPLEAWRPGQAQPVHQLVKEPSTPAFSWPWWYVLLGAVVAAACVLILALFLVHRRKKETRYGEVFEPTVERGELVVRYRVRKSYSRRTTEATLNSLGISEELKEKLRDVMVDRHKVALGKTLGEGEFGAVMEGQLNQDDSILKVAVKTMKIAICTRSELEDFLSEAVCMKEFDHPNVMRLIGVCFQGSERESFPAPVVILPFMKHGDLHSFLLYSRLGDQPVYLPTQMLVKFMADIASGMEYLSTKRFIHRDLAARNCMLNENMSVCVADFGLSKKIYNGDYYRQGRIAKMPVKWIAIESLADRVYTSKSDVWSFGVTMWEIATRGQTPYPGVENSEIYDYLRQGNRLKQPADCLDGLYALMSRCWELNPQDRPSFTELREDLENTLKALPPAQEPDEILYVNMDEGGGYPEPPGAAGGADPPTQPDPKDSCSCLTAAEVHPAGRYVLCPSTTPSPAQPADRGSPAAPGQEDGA

Sequence of GRK4 (human) (P32298 whole entry, looked up): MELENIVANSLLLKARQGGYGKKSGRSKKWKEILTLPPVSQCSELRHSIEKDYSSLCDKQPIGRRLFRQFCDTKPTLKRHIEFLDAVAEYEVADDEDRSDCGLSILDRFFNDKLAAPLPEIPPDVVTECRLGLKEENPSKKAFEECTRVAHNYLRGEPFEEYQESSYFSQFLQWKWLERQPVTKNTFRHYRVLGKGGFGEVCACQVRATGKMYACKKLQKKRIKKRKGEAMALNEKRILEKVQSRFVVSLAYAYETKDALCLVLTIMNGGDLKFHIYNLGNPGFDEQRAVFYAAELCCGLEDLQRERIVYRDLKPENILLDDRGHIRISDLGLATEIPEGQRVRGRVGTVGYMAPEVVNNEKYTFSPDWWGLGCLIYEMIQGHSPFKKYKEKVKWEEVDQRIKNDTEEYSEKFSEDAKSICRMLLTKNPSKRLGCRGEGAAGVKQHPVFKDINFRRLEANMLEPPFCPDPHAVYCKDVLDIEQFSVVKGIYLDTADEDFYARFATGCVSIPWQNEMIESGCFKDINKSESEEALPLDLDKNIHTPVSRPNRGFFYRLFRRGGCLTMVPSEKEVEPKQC
Sequence of CAMK2D (human) (Q13557 whole entry, looked up): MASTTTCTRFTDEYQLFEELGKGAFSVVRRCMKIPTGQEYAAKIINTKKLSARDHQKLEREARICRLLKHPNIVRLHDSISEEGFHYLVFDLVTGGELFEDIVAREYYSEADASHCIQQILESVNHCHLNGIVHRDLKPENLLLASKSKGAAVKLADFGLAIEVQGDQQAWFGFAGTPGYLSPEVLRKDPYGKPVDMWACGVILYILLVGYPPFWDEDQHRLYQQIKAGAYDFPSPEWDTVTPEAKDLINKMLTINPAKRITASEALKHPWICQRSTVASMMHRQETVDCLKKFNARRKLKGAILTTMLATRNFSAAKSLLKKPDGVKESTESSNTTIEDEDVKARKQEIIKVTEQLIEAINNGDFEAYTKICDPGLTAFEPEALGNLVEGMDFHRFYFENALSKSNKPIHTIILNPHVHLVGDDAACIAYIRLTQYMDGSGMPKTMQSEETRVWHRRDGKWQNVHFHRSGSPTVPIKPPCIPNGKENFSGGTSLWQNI

## COc1ccc2c(c1)c(C1=C(c3c[nH]c4ccccc34)C(=O)NC1=O)cn2CCCN(C)C
MARK2 (human)
  residual activity: 91.8%
LCK (human)
  residual activity: 93.6%
GRK4 (human)
  residual activity: 92.8%
CAMK2D (human)
  residual activity: 74.8%
MKNK2 (human)
  residual activity: 81.1%
LIMK1 (human)
  residual activity: 81.8%
VRK1 (human)
  residual activity: 76.7%
MAPKAPK5 (human)
  residual activity: 98.1%
FER (human)
  residual activity: 70.9%
PAK1 (human)
  residual activity: 87.4%
MAPKAPK2 (human)
  residual activity: 99.7%
TTK (human)
  residual activity: 89.9%
NLK (human)
  residual activity: 87.9%
MAP4K2 (human)
  residual activity: 56.3%
EPHA2 (human)
  residual activity: 91.3%
CDK2 CCNE1 (human)
  residual activity: 97.9%
SRMS (human)
  residual activity: 95.9%
PRKCB1 (human)
  residual activity: 19.3%
CLK4 (human)
  residual activity: 32.8%
MAP4K4 (human)
  residual activity: 37.8%
PRKCB2 (human)
  residual activity: 14.2%
TSSK2 (human)
  residual activity: 85.5%
EPHA3 (human)
  residual activity: 94.1%
MARK4 (human)
  residual activity: 95.9%
MUSK (human)
  residual activity: 53.5%
TAOK3 (human)
  residual activity: 78.2%
RPS6KA3 KD1 KD2 (human)
  residual activity: 6.55%
EGFR (human)
  residual activity: 92.6%
STK39 (human)
  residual activity: 111%
DAPK2 (human)
  residual activity: 81.1%
DCLK2 (human)
  residual activity: 84.8%
EPHB1 (human)
  residual activity: 91.7%
PAK6 (human)
  residual activity: 70.4%
PDPK1 (human)
  residual activity: 76.7%
GSK3B (human)
  residual activity: 32%
HIPK1 (human)
  residual activity: 77.7%
MAPKAPK3 (human)
  residual activity: 92.3%
CDK5 CDK5R1 p35 (human)
  residual activity: 81.4%
GRK6 (human)
  residual activity: 96.2%
HIPK4 (human)
  residual activity: 101%
CLK2 (human)
  residual activity: 78%
AXL (human)
  residual activity: 98.7%

## Ic1cccc(CSc2nnc(-c3ccncc3)o2)c1
MARK2 (human)
  residual activity: 116%
LCK (human)
  residual activity: 98.5%
GRK4 (human)
  residual activity: 99.9%
CAMK2D (human)
  residual activity: 96.8%
MKNK2 (human)
  residual activity: 91.5%
LIMK1 (human)
  residual activity: 85.8%
VRK1 (human)
  residual activity: 93.1%
MAPKAPK5 (human)
  residual activity: 83.6%
FER (human)
  residual activity: 101%
PAK1 (human)
  residual activity: 94.8%
MAPKAPK2 (human)
  residual activity: 93.5%
TTK (human)
  residual activity: 103%
NLK (human)
  residual activity: 107%
MAP4K2 (human)
  residual activity: 112%
EPHA2 (human)
  residual activity: 102%
CDK2 CCNE1 (human)
  residual activity: 102%
SRMS (human)
  residual activity: 93.4%
PRKCB1 (human)
  residual activity: 97.5%
CLK4 (human)
  residual activity: 90%
MAP4K4 (human)
  residual activity: 97.4%
PRKCB2 (human)
  residual activity: 91.2%
TSSK2 (human)
  residual activity: 110%
EPHA3 (human)
  residual activity: 111%
MARK4 (human)
  residual activity: 86.8%
MUSK (human)
  residual activity: 94.1%
TAOK3 (human)
  residual activity: 103%
RPS6KA3 KD1 KD2 (human)
  residual activity: 96.4%
EGFR (human)
  residual activity: 97.1%
STK39 (human)
  residual activity: 101%
DAPK2 (human)
  residual activity: 108%
DCLK2 (human)
  residual activity: 100%
EPHB1 (human)
  residual activity: 101%
PAK6 (human)
  residual activity: 74%
PDPK1 (human)
  residual activity: 98.3%
GSK3B (human)
  residual activity: 59.8%
HIPK1 (human)
  residual activity: 105%
MAPKAPK3 (human)
  residual activity: 109%
CDK5 CDK5R1 p35 (human)
  residual activity: 102%
GRK6 (human)
  residual activity: 100%
HIPK4 (human)
  residual activity: 98.8%
CLK2 (human)
  residual activity: 104%
AXL (human)
  residual activity: 99.2%

## NC(=O)c1cccc(-c2cc(Nc3ccc(OC(F)(F)F)cc3)ncn2)c1
MARK2 (human)
  residual activity: 90.8%
LCK (human)
  residual activity: 93.3%
GRK4 (human)
  residual activity: 94.8%
CAMK2D (human)
  residual activity: 90.8%
MKNK2 (human)
  residual activity: 95.4%
LIMK1 (human)
  residual activity: 100%
VRK1 (human)
  residual activity: 97.9%
MAPKAPK5 (human)
  residual activity: 94.3%
FER (human)
  residual activity: 105%
PAK1 (human)
  residual activity: 93.3%
MAPKAPK2 (human)
  residual activity: 97.3%
TTK (human)
  residual activity: 91.4%
NLK (human)
  residual activity: 93.4%
MAP4K2 (human)
  residual activity: 132%
EPHA2 (human)
  residual activity: 94.9%
CDK2 CCNE1 (human)
  residual activity: 86.6%
SRMS (human)
  residual activity: 93.4%
PRKCB1 (human)
  residual activity: 97.4%
CLK4 (human)
  residual activity: 97.8%
MAP4K4 (human)
  residual activity: 104%
PRKCB2 (human)
  residual activity: 122%
TSSK2 (human)
  residual activity: 97%
EPHA3 (human)
  residual activity: 97.5%
MARK4 (human)
  residual activity: 98.1%
MUSK (human)
  residual activity: 95.9%
TAOK3 (human)
  residual activity: 107%
RPS6KA3 KD1 KD2 (human)
  residual activity: 101%
EGFR (human)
  residual activity: 96.6%
STK39 (human)
  residual activity: 85.5%
DAPK2 (human)
  residual activity: 99.1%
DCLK2 (human)
  residual activity: 104%
EPHB1 (human)
  residual activity: 105%
PAK6 (human)
  residual activity: 102%
PDPK1 (human)
  residual activity: 98.3%
GSK3B (human)
  residual activity: 110%
HIPK1 (human)
  residual activity: 102%
MAPKAPK3 (human)
  residual activity: 98%
CDK5 CDK5R1 p35 (human)
  residual activity: 96%
GRK6 (human)
  residual activity: 101%
HIPK4 (human)
  residual activity: 101%
CLK2 (human)
  residual activity: 93.1%
AXL (human)
  residual activity: 101%
